Assay results from US3993650A, “Pyrrolo [3,4-d] pyrimidines” (Gruppo Lepetit S.p.A., priority 1975, dated 1976).

Tested on: carragenin induced edema
Experiment: carragenin induced edema test in rats (antiinflammatory activity)
Format: in vivo
Details: per os; for decrease of the induced edema: 100 mg/kg; for decrease of the induced edema over the controls: dose levels ranging from about 20 to about 50 mg/kg
Description: The compounds of the invention display excellent pharmacological properties; more particularly they are active essentially as antiinflammatories and as prostaglandin synthetase inhibitors. The antiinflammatory activity was investigated through the "carragenin induced edema" test in rats, which was performed following substantially the operative schema proposed by C.A. Winter et al. in Proc. Soc. Expl. Biol. Med., 111, 544, 1962.
It must be noted that a percent decrease of the edema of 30 is absolutely significative from the pharmacological standpoint. Moreover when administered per os at 100 mg/kg the compounds of examples 3 and 7 caused a decrease of the induced edema of about 55%. These very favorable antiinflammatory properties are coupled with a low toxicity, being the LD50 of the compounds of the invention always higher than 500 mg/kg p.o. in mice. Toxicities were determined substantially according to the method described by Lichtfield and Wilcoxon in Journ. Pharm. Expt. Ther., 96, 99 1949.

SMILES	decrease of the induced edema	decrease of the induced edema over the controls
CCn1c(-c2ccccc2)c2c(C)nc(-c3ccccc3)c-2[nH]c1=O.Cl [Example 3, 3-Ethyl-5-methyl-4,7-diphenyl-1H-pyrrolo[3,4-d]pyrimidine-2(3H)-one hydrochloride]	about 55%	at least 30%
CCn1c(-c2ccccc2)c2[nH]c(=O)nc(-c3ccccc3)c2c1C [Example 6, 6-Ethyl-5-methyl-4,7-diphenyl-6H-pyrrolo[3,4-d]pyrimidine-2(1H)-one]		at least 30%
CCn1c(C)c2c(-c3ccccc3)nc(=O)n(CC)c2c1-c1ccccc1 [Example 7, 1,6-Diethyl-5-methyl-4,7-diphenyl-6H-pyrrolo[3,4-d]pyrimidine-2(1H)-one]	about 55%	at least 30%
